Assay results: patent publication US9751874B2, “Hydroxy containing FXR (NR1H4) modulating compounds” (Gilead Sciences, Inc., priority 2014, dated 2017)
pEC50: −log10 of the molar value.

Assays:
[1] = target: T1, human FXR alpha ligand binding domain (Homo sapiens, UniProt Q96RI1); assay: FRET activity assay (ligand mediated cofactor peptide interaction, LANCE); type: biochemical; settings: GST-FXR-LBD / biotinylated SRC-1 peptide (676-700), read-out: F EC50
T1 construct: made in house; host or cells: E. coli BL21(DE3), vector pDEST15
T1 sequence (Q96RI1 187-472 isoform Q96RI1-2): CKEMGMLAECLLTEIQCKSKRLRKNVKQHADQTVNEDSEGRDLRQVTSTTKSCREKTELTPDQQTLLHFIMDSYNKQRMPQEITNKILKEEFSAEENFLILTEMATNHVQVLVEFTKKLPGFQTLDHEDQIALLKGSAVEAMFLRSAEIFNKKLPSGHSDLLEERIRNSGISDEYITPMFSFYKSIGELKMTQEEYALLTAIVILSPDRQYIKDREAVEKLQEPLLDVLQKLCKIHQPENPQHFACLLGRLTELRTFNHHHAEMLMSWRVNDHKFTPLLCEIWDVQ
In short: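 GST-tagged FXR LBD (aa 187–472, E. coli-expressed) at 20–60 ng/well with 200–600 nM biotinylated SRC-1 peptide (676–700), streptavidin-APC and Eu anti-GST in Tris pH 7.5 buffer, 1% DMSO, equilibrated 1 h dark at room temperature. TR-FRET read as 665/615 nm ratio; agonists raise signal above basal.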

[2] = target: T2, FXR ligand binding domain (Homo sapiens, UniProt Q96RI1); assay: Mammalian One Hybrid (M1H) assay, Gal4 promoter driven transactivation in HEK293 cells; type: cell-based; settings: Gal4-FXR-LBD luciferase reporter, 16 h
T2 construct: expressed in transfected cells; host or cells: HEK293 cells, transiently transfected with pCMV-BD-FXR-LBD, pFR-Luc and pRL-CMV
T2 sequence (Q96RI1 187-472 isoform Q96RI1-2): T1 sequence (Q96RI1 187-472 isoform Q96RI1-2)
In short: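 HEK293 cells were transiently co-transfected with Gal4-DBD fused to the human FXR LBD (aa 187-472, NM_005123), a 5×GAL4-site firefly luciferase reporter and CMV-Renilla control. Compounds were added 2-4 h post-transfection (vehicle ≤0.1%) in charcoal/dextran-stripped FBS medium for 16 h. Firefly and Renilla luciferase were read sequentially, in triplicate.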

Row | Compound | pEC50 [1] | pEC50 [2]
1 | O[C@@]1(c2nc3ccccc3s2)[C@@H]2CC3C[C@H]1C[C@](OCc1c(-c4c(Cl)cccc4Cl)noc1C1CC1)(C3)C2 [Example 24b, (1R,2s,3S,5s,7s)-2-(benzo[d]thiazol-2-yl)-5-((5-cyclopropyl-3-(2,6-dichlorophenyl)isoxazol-4-yl)methoxy)adamantan-2-ol] | 6.62 | 6.14
2 | O=C(O)c1ccc2sc([C@]3(O)CC[C@H](OCc4c(-c5c(Cl)cccc5Cl)noc4C4CC4)CC3)nc2c1 [Example 5, 2-((1r,4r)-4-((5-Cyclopropyl-3-(2,6-dichlorophenyl)isoxazol-4-yl)methoxy)-1-hydroxycyclohexyl)benzo[d]thiazole-5-carboxylic acid] | 6.21 | 5.72
3 | O=C(O)c1ccc2nc([C@]3(O)CC[C@@H](OCc4c(-c5c(Cl)cncc5Cl)noc4C4CC4)CC3)sc2c1 [Example 11-16, 2-((1s,4s)-4-((5-Cyclopropyl-3-(3,5-dichloropyridin-4-yl)isoxazol-4-yl)methoxy)-1-hydroxycyclohexyl)benzo[d]thiazole-6-carboxylic acid] | 7.08 | 6.24
4 | CC1(OCc2c(-c3c(Cl)cccc3Cl)noc2C2CC2)C[C@H]2CC[C@@H](C1)[C@]2(O)c1nc2c(F)cc(C(=O)O)cc2s1 (single isomer, unassigned) [Example 11-39] | 6.41 | 6.60
5 | OCc1ccc(F)c([C@]2(O)CC[C@@H](OCc3c(-c4c(Cl)cccc4Cl)noc3C3CC3)CC2)c1 [Example 9-7, (1s,4s)-4-((5-Cyclopropyl-3-(2,6-dichlorophenyl)isoxazol-4-yl)methoxy)-1-(2-fluoro-5-(hydroxymethyl)phenyl)cyclohexanol] | 6.96 | 6.82
6 | O=C(O)c1ccc2nc([C@]3(O)CC[C@@H](OCc4c(-c5ccccc5OC(F)(F)F)noc4C4CC4)CC3)sc2c1 [Example 11-14, 2-((1s,4s)-4-((5-Cyclopropyl-3-(2-(trifluoromethoxy)phenyl)isoxazol-4-yl)methoxy)-1-hydroxycyclohexyl)benzo[d]thiazole-6-carboxylic acid] | 6.64 | 6.57
7 | O=C(O)c1ccc(C2(O)C[C@H]3CC(OCc4c(-c5c(Cl)cccc5Cl)noc4C4CC4)C[C@H]3C2)c(F)c1 (stereo partly drawn) [Example 11-47, 4-((3aR,6aS)-5-((5-Cyclopropyl-3-(2,6-dichlorophenyl)isoxazol-4-yl)methoxy)-2-hydroxyoctahydropentalen-2-yl)-3-fluorobenzoic acid] | 7.92 | 7.00
8 | O=C(O)c1ccnc2ccc([C@]3(O)CC[C@H](OCc4c(-c5c(Cl)cccc5Cl)noc4C4CC4)CC3)cc12 [Example 31, 6-((1r,4r)-4-((5-cyclopropyl-3-(2,6-dichlorophenyl)isoxazol-4-yl)methoxy)-1-hydroxycyclohexyl)quinoline-4-carboxylic acid] | 5.31 | < 5.52
9 | O=C(O)c1ccc2nc(C3(O)CC4(CC(OCc5c(-c6c(Cl)cccc6Cl)noc5C5CC5)C4)C3)sc2c1 (single isomer, unassigned) [Example 11-4b, 2-(6-((5-Cyclopropyl-3-(2,6-dichlorophenyl)isoxazol-4-yl)methoxy)-2-hydroxyspiro[3.3]heptan-2-yl)benzo[d]thiazole-6-carboxylic acid] | 6.92 | 6.42
10 | O=c1nc(-c2cc(F)c3nc([C@]4(O)[C@@H]5CC[C@H]4C[C@H](OCc4c(-c6c(Cl)cccc6Cl)noc4C4CC4)C5)sc3c2)[nH]o1 [Example 36, 3-(2-((1R,3s,5S,8r)-3-((5-Cyclopropyl-3-(2,6-dichlorophenyl)isoxazol-4-yl)methoxy)-8-hydroxybicyclo[3.2.1]octan-8-yl)-4-fluorobenzo[d]thiazol-6-yl)-1,2,4-oxadiazol-5(2H)-one] | 8.34 | 7.43
11 | O=C(O)c1ccc2nc([C@]3(O)CC[C@@H](OCc4c(C5CCC(F)(F)CC5)noc4C4CC4)CC3)sc2c1 [Example 11-1, 2-((1s,4s)-4-((5-Cyclopropyl-3-(4,4-difluorocyclohexyl)isoxazol-4-yl)methoxy)-1-hydroxycyclohexyl)benzo[d]thiazole-6-carboxylic acid] | 5.66 | < 5.52
12 | O=C(O)c1cc2sc([C@]3(O)CC[C@@H](OCc4c(-c5ccccc5OC(F)F)noc4C4CC4)CC3)nc2cc1F [Example 11-19, 2-((1s,4s)-4-((5-Cyclopropyl-3-(2-(difluoromethoxy)phenyl)isoxazol-4-yl)methoxy)-1-hydroxycyclohexyl)-5-fluorobenzo[d]thiazole-6-carboxylic acid] | 6.24 | 5.60
13 | O=C(O)c1ccnc([C@]2(O)CC[C@@H](OCc3c(-c4c(Cl)cccc4Cl)noc3C3CC3)CC2)c1 [Example 11-6, 2-((1s,4s)-4-((5-Cyclopropyl-3-(2,6-dichlorophenyl)isoxazol-4-yl)methoxy)-1-hydroxycyclohexyl)isonicotinic acid] | 7.40 | 7.29
14 | CC1(C)C[C@](O)(c2nc3c(F)cc(C(=O)O)cc3s2)CC[C@H]1OCc1c(-c2c(Cl)cccc2Cl)noc1C1CC1 (racemic) [Example 11-33, 2-((1S,4R)-4-((5-Cyclopropyl-3-(2,6-dichlorophenyl)isoxazol-4-yl)methoxy)-1-hydroxy-3,3-dimethylcyclohexyl)-4-fluorobenzo[d]thiazole-6-carboxylic acid] | 7.44 | 7.42
15 | OC1(c2nc3ccccc3s2)C2CC3CC1CC(OCc1c(-c4c(Cl)cccc4Cl)noc1C1CC1)(C3)C2 [Example 24a, (1R,2r,3S,5s,7s)-2-(Benzo[d]thiazol-2-yl)-5-((5-cyclopropyl-3-(2,6-dichlorophenyl)isoxazol-4-yl)methoxy)adamantan-2-ol] | 7.31 | 6.85
16 | O=C(O)c1cc(F)c2nc(C3(O)C[C@H]4CC(OCc5c(-c6c(Cl)cccc6Cl)noc5C5CC5)C[C@H]4C3)sc2c1 (stereo partly drawn) [Example 11-46, 2-((3aR,6aS)-5-((5-Cyclopropyl-3-(2,6-dichlorophenyl)isoxazol-4-yl)methoxy)-2-hydroxyoctahydropentalen-2-yl)-4-fluorobenzo[d]thiazole-6-carboxylic acid] | 7.36 | 6.74
17 | O=C(O)c1ccc2nc([C@]3(O)[C@@H]4CC5C[C@H]3C[C@](OCc3c(-c6c(Cl)cccc6Cl)noc3C3CC3)(C5)C4)sc2c1 [Example 11-36, 2-((1R,2s,3S,5s,7s)-5-((5-Cyclopropyl-3-(2,6-dichlorophenyl)isoxazol-4-yl)methoxy)-2-hydroxyadamantan-2-yl)benzo[d]thiazole-6-carboxylic acid] | 5.96 | 6.03
18 | CC(C)(O)c1onc(-c2c(Cl)cccc2Cl)c1CO[C@@H]1C[C@H]2CC[C@@H](C1)[C@]2(O)c1nc2c(F)cc(C(=O)O)cc2s1 [Example 11-56, 2-((1R,3s,5S,8r)-3-((3-(2,6-Dichlorophenyl)-5-(2-hydroxypropan-2-yl)isoxazol-4-yl)methoxy)-8-hydroxybicyclo[3.2.1]octan-8-yl)-4-fluorobenzo[d]thiazole-6-carboxylic acid] | 7.64 | 6.54
19 | O=C(O)c1cnc2cc([C@]3(O)CC[C@@H](OCc4c(-c5c(Cl)cccc5Cl)noc4C4CC4)CC3)ccc2c1 [Example 11-43, 7-((1s,4s)-4-((5-Cyclopropyl-3-(2,6-dichlorophenyl)isoxazol-4-yl)methoxy)-1-hydroxycyclohexyl)quinoline-3-carboxylic acid] | 7.80 | 5.74
20 | O=C(O)Cc1nc([C@]2(O)[C@@H]3CC[C@H]2C[C@H](OCc2c(-c4c(Cl)cccc4Cl)noc2C2CC2)C3)oc1C(F)(F)F [Example 45, 2-(2-((1R,3s,5S,8r)-3-((5-Cyclopropyl-3-(2,6-dichlorophenyl)isoxazol-4-yl)methoxy)-8-hydroxybicyclo[3.2.1]octan-8-yl)-5-(trifluoromethyl)oxazol-4-yl)acetic acid] | 8.22 | 8.10
21 | O=C(O)c1cc(F)c2nc(C3(O)C[C@H]4CC[C@@H](C3)C4OCc3c(-c4c(Cl)cccc4Cl)noc3C3CC3)sc2c1 (single isomer, unassigned) [Example 11-55] | 7.11 | 7.62
22 | O=C(O)Cc1ccc([C@]2(O)CC[C@@H](OCc3c(-c4c(Cl)cccc4Cl)noc3C3CC3)CC2)c(F)c1 [Example 11-8, 2-(4-((1s,4s)-4-((5-Cyclopropyl-3-(2,6-dichlorophenyl)isoxazol-4-yl)methoxy)-1-hydroxycyclohexyl)-3-fluorophenyl)acetic acid] | 5.10 | < 5.52
23 | O=C(O)c1ccnc2cc([C@]3(O)CC[C@@H](OCc4c(-c5c(Cl)cccc5Cl)noc4C4CC4)CC3)ccc12 [Example 29, 7-((1s,4s)-4-((5-cyclopropyl-3-(2,6-dichlorophenyl)isoxazol-4-yl)methoxy)-1-hydroxycyclohexyl)quinoline-4-carboxylic acid] | 7.29 | 5.59
